Assay results from patent publication US11814519B2, “Nitric oxide-releasing 3D-printing compositions and uses thereof” (Virginia Commonwealth University, priority 2020, dated 2023).

What was measured:
[1] = cited from earlier work
[2] = Optical images of a thin printed layer of donor-loaded silicone rubber soaked in phosphate buffered saline-EDTA (dissolution of donor particles); format: physicochemical; conditions: thin printed layer soaked in PBSE
Protocol: FIG. 4A-C is optical images of a thin layer of S-nitroso-N-acetylpenicillamine-doped silicone rubber before soaking (A) and after 24 h (B) and 48 h (C) of soaking in phosphate buffered saline-EDTA.
FIG. 7A-C is bright-field optical images of a thin layer of S-nitrosoglutathione-loaded silicon rubber before and after soaking in phosphate buffered saline-EDTA.

[3] = Solubility of the NO donor in solvents and in the silicone ink; format: physicochemical; conditions: silicone ink ingredients

For N[C@@H](CCC(=O)N[C@@H](CSN=O)C(=O)NCC(=O)O)C(=O)O [GSNO, S-nitrosoglutathione], the “solvents in which the donor is soluble” value [1] is given as “only appreciably dissolved in water and DMSO”, the “water solubility relative to SNAP” value ([1]; water) is given as “much higher” and the “time for dissolution of donor particles in the thin printed layer” value ([2]; optical images (FIG. 7)) is given as “dissolved within a day”. The “solubility in the silicone rubber ink” value [3] was “not soluble”.

In the case of CC(=O)N[C@H](C(=O)O)C(C)(C)SN=O (racemic) [SNAP, S-nitroso-N-acetylpenicillamine], the “solvents in which the donor is soluble” value [1] is listed as “most soluble in organic solvents such as methanol and tetrahydrofuran”, the “time required for dissolution of donor particles in the thin printed layer” value ([2]; optical images) is listed as 3 days and the “solubility in the silicone rubber ink” value [3] is listed as “not dissolved in the ink ingredients”.
